Patent EP4043444A1, “SUBSTITUTED ISOXAZOLINE DERIVATIVES” (priority 2021, dated 2022)
Read-outs that look alike come from different tables or passages of the source.

What was measured:
Format in all cases: in vivo
[1] = system: Green Peach Aphid (Myzus persicae) (mixed life stages); experiment: Green Peach Aphid control through systemic means, artificial diet under artificial membrane; settings: for mortality at 2500 ppm: Myzus persicae, 72 h, read-out: mortality (Aphid mortality)
Text: For evaluating control of Green Peach Aphid through systemic means the test unit consisted of 96-well-microtiter plates containing liquid artificial diet under an artificial membrane. The compounds were formulated using a solution containing 75% v/v water and 25% v/v DMSO. Different concentrations of formulated compounds were pipetted into the aphid diet, using a custom-built pipette, at two replications. After application, 5 - 8 adult aphids were placed on the artificial membrane inside the microtiter plate wells. The aphids were then allowed to suck on the treated aphid diet and incubated at about 23 + 1°C and about 50 + 5 % relative humidity for 3 days. Aphid mortality and fecundity was then visually assessed.

[2] = system: Boll weevil (Anthonomus grandis); experiment: Boll weevil control, 96-well microtiter plates with insect diet and eggs; settings: for mortality at 2500 ppm: Anthonomus grandis, 120 h, read-out: mortality (Egg and larval mortality)
Experimental: For evaluating control of boll weevil, the test unit consisted of 96-well-microtiter plates containing an insect diet and 5-10 A. grandis eggs.
The compounds were formulated using a solution containing 75% v/v water and 25% v/v DMSO. Different concentrations of formulated compounds were sprayed onto the insect diet at 5µl, using a custom-built micro atomizer, at two replications.
After application, microtiter plates were incubated at about 25 + 1°C and about 75 + 5 % relative humidity for 5 days. Egg and larval mortality were then visually assessed.

[3] = system: Tobacco Budworm (Heliothis virescens); experiment: Tobacco Budworm control, 96-well microtiter plates with insect diet and eggs; settings: for mortality at 2500 ppm: Heliothis virescens, 120 h, read-out: mortality (Egg and larval mortality)
Experimental: For evaluating control of Tobacco Budworm, the test unit consisted of 96-well-microtiter plates containing an insect diet and 15-25 H. virescens eggs. The compounds were formulated using a solution containing 75% v/v water and 25% v/v DMSO. Different concentrations of formulated compounds were sprayed onto the insect diet at 10µl, using a custom-built micro atomizer, at two replications. After application, microtiter plates were incubated at about 28 + 1°C and about 80 + 5 % relative humidity for 5 days. Egg and larval mortality was then visually assessed.

[4] = system: Yellow Fever Mosquito (Aedes aegypti); experiment: whole plant or invertebrate; settings: 48 h, 2 days, in comparison with untreated controls, read-out: mortality (Larval mortality)
Experimental: For evaluating control of Yellow Fever Mosquito the test unit consisted of 96-well-microtiter plates containing 200µl of tap water per well and 5-15 freshly hatched A. aegypti larvae. The active compounds were formulated using a solution containing 75% (v/v) water and 25% (v/v) DMSO. Different concentrations of formulated compounds or mixtures were sprayed onto the insect diet at 2.5µl, using a custom-built micro atomizer, at two replications.
After application, microtiter plates were incubated at 28 + 1°C, 80 + 5 % RH for 2 days. Larval mortality was then visually assessed.

[5] = 2500ppm, sprayed onto insect diet, 5 days, in comparison with untreated controls

“2-chloro-5-[[5-(3,5-dichloro-4-fluoro-phenyl)-5-(trifluoromethyl)-4H-isoxazol-3-yl]amino]-N-[1-(trifluoromethylsulfonyl)azetidin-3-yl]benzamide [I-99]” was tested, and the “mortality (Aphid mortality)” value ([1]; 2500 ppm, pipetted into aphid diet, 3 days, in comparison with untreated controls) was “at least 75%”, the “mortality (Egg and larval mortality)” value [2, 5] was “at least 75%” and the “mortality (Egg and larval mortality)” value [3, 5] was “at least 75%”.

Molecule O=C(Nc1ccc(F)cc1F)c1cc(NC2=NOC(c3cc(Cl)cc(Cl)c3)(C(F)(F)F)C2)ccc1Cl (stereo not drawn) [I-2] has a mortality at 2500 ppm [1] of at least 75%, a mortality at 2500 ppm [2] of at least 75% and a mortality at 2500 ppm [3, 5] of at least 75%. It also gave a mortality at 2500 ppm [4] of at least 75%.

N#CC1(NC(=O)c2cc(NC3=NOC(c4cc(Cl)cc(Cl)c4)(C(F)(F)F)C3)ccc2Cl)CC1 (stereo not drawn) [I-3] gave a mortality at 2500 ppm [1] of at least 75%, a mortality at 2500 ppm [2] of at least 75% and a mortality at 2500 ppm [3, 5] of at least 75%. The mortality at 2500 ppm [4] was at least 75%.

Work on O=C(Nc1ccc(F)c(NC(=O)C(F)F)c1F)c1cc(NC2=NOC(c3cc(Cl)cc(Cl)c3)(C(F)(F)F)C2)ccc1Cl (stereo not drawn) [I-5, 2-chloro-5-[[5-(3,5-dichlorophenyl)-5-(trifluoromethyl)-4H-isoxazol-3-yl]amino]-N-[3-[(2,2-difluoroacetyl)amino]-2,4-difluoro-phenyl]benzamide] yielded a mortality at 2500 ppm [1] of at least 75%, a mortality at 2500 ppm [2] of at least 75% and a mortality at 2500 ppm [3, 5] of at least 75%. It also gave a mortality at 2500 ppm [4] of at least 75%.

Molecule CC(=O)Nc1c(F)ccc(NC(=O)c2cc(NC3=NOC(c4cc(Cl)cc(Cl)c4)(C(F)(F)F)C3)ccc2Cl)c1F (stereo not drawn) [I-6] has a mortality at 2500 ppm [1] of at least 75%, a mortality at 2500 ppm [2] of at least 75% and a mortality at 2500 ppm [3, 5] of at least 75%. For the same molecule, the mortality at 2500 ppm [4] was at least 75%.

Molecule O=C(Nc1ccc(F)c(NC(=O)C(F)(F)Cl)c1F)c1cc(NC2=NOC(c3cc(Cl)cc(Cl)c3)(C(F)(F)F)C2)ccc1Cl (stereo not drawn) [I-7] has a mortality at 2500 ppm [1] of at least 75%, a mortality at 2500 ppm [2] of at least 75% and a mortality at 2500 ppm [3, 5] of at least 75%. For the same molecule, the mortality at 2500 ppm [4] was at least 75%.

Work on O=C(Nc1ccc(F)c(NC(=O)C(F)(F)F)c1F)c1cc(NC2=NOC(c3cc(Cl)cc(Cl)c3)(C(F)(F)F)C2)ccc1Cl (stereo not drawn) [I-8] yielded a mortality at 2500 ppm [1] of at least 75%, a mortality at 2500 ppm [2] of at least 75% and a mortality at 2500 ppm [3, 5] of at least 75%. The mortality at 2500 ppm [4] was at least 75%.

In the case of O=C(CC(F)(F)F)Nc1c(F)ccc(NC(=O)c2cc(NC3=NOC(c4cc(Cl)cc(Cl)c4)(C(F)(F)F)C3)ccc2Cl)c1F (stereo not drawn) [I-9], the mortality at 2500 ppm [1] is reported as at least 75%, the mortality at 2500 ppm [2] is reported as at least 75% and the mortality at 2500 ppm [3, 5] is reported as at least 75%. It also gave a mortality at 2500 ppm [4] of at least 75%.

Molecule O=C(CC1CC1)Nc1c(F)ccc(NC(=O)c2cc(NC3=NOC(c4cc(Cl)cc(Cl)c4)(C(F)(F)F)C3)ccc2Cl)c1F (stereo not drawn) [I-10] has a mortality at 2500 ppm [2] of at least 75%, a mortality at 2500 ppm [3, 5] of at least 75% and a mortality at 2500 ppm [4] of at least 75%.

For N#CC1(NC(=O)c2c(F)ccc(NC3=NOC(c4cc(Cl)cc(Cl)c4)(C(F)(F)F)C3)c2F)CC1 (stereo not drawn) [I-11, N-(1-cyanocyclopropyl)-3-[[5-(3,5-dichlorophenyl)-5-(trifluoromethyl)-4H-isoxazol-3-yl]amino]-2,6-difluoro-benzamide], the mortality at 2500 ppm [3, 5] was at least 75% and the mortality at 2500 ppm [4] was at least 75%.

O=C(Nc1ccc(F)cc1F)c1cccc(NC2=NOC(c3cc(Cl)cc(Cl)c3)(C(F)(F)F)C2)c1F (stereo not drawn) [I-13, 3-[[5-(3,5-dichlorophenyl)-5-(trifluoromethyl)-4H-isoxazol-3-yl]amino]-N-(2,4-difluorophenyl)-2-fluoro-benzamide] gave a mortality at 2500 ppm [1] of at least 75%, a mortality at 2500 ppm [2] of at least 75% and a mortality at 2500 ppm [3, 5] of at least 75%. For the same molecule, the mortality at 2500 ppm [4] was at least 75%.

Molecule O=C(Nc1ccc(F)cc1F)c1cc(NC2=NOC(c3cc(Cl)c(F)c(Cl)c3)(C(F)(F)F)C2)ccc1Cl (stereo not drawn) [I-14] has a mortality at 2500 ppm [1] of at least 75%, a mortality at 2500 ppm [2] of at least 75% and a mortality at 2500 ppm [3, 5] of at least 75%. It also gave a mortality at 2500 ppm [4] of at least 75%.

O=C(Nc1ccc(F)cc1F)c1cc(NC2=NOC(c3ccc(F)c(C(F)(F)F)c3)(C(F)(F)F)C2)ccc1Cl (stereo not drawn) [I-16] showed a mortality at 2500 ppm [1] of at least 75%, a mortality at 2500 ppm [2] of at least 75% and a mortality at 2500 ppm [3, 5] of at least 75%. It also gave a mortality at 2500 ppm [4] of at least 75%.

For N#CC1(NC(=O)c2cc(N(CC3CC3)C3=NOC(c4cc(Cl)cc(Cl)c4)(C(F)(F)F)C3)ccc2Cl)CC1 (stereo not drawn) [I-25, 2-chloro-N-(1-cyanocyclopropyl)-5-[cyclopropylmethyl-[5-(3,5-dichlorophenyl)-5-(trifluoromethyl)-4H-isoxazol-3-yl]amino]benzamide], the mortality at 2500 ppm [2] was at least 75%, the mortality at 2500 ppm [3, 5] was at least 75% and the mortality at 2500 ppm [4] was at least 75%.

CCOC(=O)N(C1=NOC(c2cc(Cl)cc(Cl)c2)(C(F)(F)F)C1)c1ccc(Cl)c(C(=O)NC2(C#N)CC2)c1 (stereo not drawn) [I-28, ethyl N-[4-chloro-3-[(1-cyanocyclopropyl)carbamoyl]phenyl]-N-[5-(3,5-dichlorophenyl)-5-(trifluoromethyl)-4H-isoxazol-3-yl]carbamate] gave a mortality at 2500 ppm [2] of at least 75%, a mortality at 2500 ppm [3, 5] of at least 75% and a mortality at 2500 ppm [4] of at least 75%.

O=C(NCc1ccccn1)c1ccc(NC2=NOC(c3cc(Cl)cc(Cl)c3)(C(F)(F)F)C2)cc1Cl (stereo not drawn) [I-70] gave a mortality at 2500 ppm [2] of at least 75%, a mortality at 2500 ppm [3, 5] of at least 75% and a mortality at 2500 ppm [4] of at least 75%.

For CCN1OC[C@@H](NC(=O)c2ccc(NC3=NOC(c4cc(Cl)cc(Cl)c4)(C(F)(F)F)C3)cc2Cl)C1=O (stereo partly drawn) [I-71], the mortality at 2500 ppm [4] was at least 75%.

In the case of CC(C)(C#N)NC(=O)c1cc(NC2=NOC(c3cc(Cl)c(F)c(Cl)c3)(C(F)(F)F)C2)ccc1Cl (stereo not drawn) [I-75, 2-chloro-N-(1-cyano-1-methyl-ethyl)-5-[[5-(3,5-dichloro-4-fluoro-phenyl)-5-(trifluoromethyl)-4H-isoxazol-3-yl]amino]benzamide], the mortality at 2500 ppm [2] is reported as at least 75% and the mortality at 2500 ppm [3, 5] is reported as at least 75%.

Molecule O=C(NC1C[S+]([O-])C1)c1cc(NC2=NOC(c3cc(Cl)c(F)c(Cl)c3)(C(F)(F)F)C2)ccc1Cl (stereo not drawn) [I-96, 2-chloro-5-[[5-(3,5-dichloro-4-fluoro-phenyl)-5-(trifluoromethyl)-4H-isoxazol-3-yl]amino]-N-(1-oxothietan-3-yl)benzamide] has a mortality at 2500 ppm [1] of at least 75%, a mortality at 2500 ppm [2] of at least 75% and a mortality at 2500 ppm [3] of at least 75%. The mortality at 2500 ppm [4] was at least 75%.

In the case of O=C(NC1CN(S(=O)(=O)C(F)F)C1)c1cc(NC2=NOC(c3cc(Cl)c(F)c(Cl)c3)(C(F)(F)F)C2)ccc1Cl (stereo not drawn) [I-98, 2-chloro-5-[[5-(3,5-dichloro-4-fluoro-phenyl)-5-(trifluoromethyl)-4H-isoxazol-3-yl]amino]-N-[1-(difluoromethylsulfonyl)azetidin-3-yl]benzamide], the mortality at 2500 ppm [1] is reported as at least 75%, the mortality at 2500 ppm [2] is reported as at least 75% and the mortality at 2500 ppm [3] is reported as at least 75%. The mortality at 2500 ppm [4] was at least 75%.

CCOC(=O)N(C1=NOC(c2cc(Cl)cc(Cl)c2)(C(F)(F)F)C1)c1ccc(Cl)c(C(=O)N(C(=O)OCC)C2(C#N)CC2)c1 (stereo not drawn) [I-142, ethyl N-[4-chloro-3-[(1-cyanocyclopropyl)-ethoxycarbonyl-carbamoyl]-phenyl]-N-[5-(3,5-dichlorophenyl)-5-(trifluoromethyl)-4H-isoxazol-3-yl]carbamate] gave a mortality at 2500 ppm [2] of at least 75%, a mortality at 2500 ppm [3, 5] of at least 75% and a mortality at 2500 ppm [4] of at least 75%.

Work on COc1ccc(NC2=NOC(c3cc(Cl)cc(Cl)c3)(C(F)(F)F)C2)cc1C(=O)NC1(C#N)CC1 (stereo not drawn) [I-147] yielded a mortality at 2500 ppm [2] of at least 75% and a mortality at 2500 ppm [4] of at least 75%.

With N#CC1(NC(=O)c2cc(NC3=NOC(c4cc(Cl)cc(Cl)c4)(C(F)(F)F)C3)ccc2OC(F)F)CC1 (stereo not drawn) [I-148] the mortality at 2500 ppm [2] was at least 75%, the mortality at 2500 ppm [3, 5] was at least 75% and the mortality at 2500 ppm [4] was at least 75%.

N#CC1(NC(=O)c2cc(NC3=NOC(c4cc(Cl)cc(Cl)c4)(C(F)(F)F)C3)ccc2C(F)(F)F)CC1 (stereo not drawn) [I-149] was tested, and the mortality at 2500 ppm [2] was at least 75%, the mortality at 2500 ppm [3, 5] was at least 75% and the mortality at 2500 ppm [4] was at least 75%.

Molecule O=C(Nc1ccc(F)cc1F)c1cc(NC2=NOC(c3cc(Cl)cc(Cl)c3)(C(F)(F)F)C2)ccc1OC(F)(F)F (stereo not drawn) [I-159] has a mortality at 2500 ppm [2] of at least 75%, a mortality at 2500 ppm [3, 5] of at least 75% and a mortality at 2500 ppm [4] of at least 75%.

For COc1ccc(NC2=NOC(c3cc(Cl)cc(Cl)c3)(C(F)(F)F)C2)cc1C(=O)NC1CC1 (stereo not drawn) [I-170], the mortality at 2500 ppm [2] was at least 75%, the mortality at 2500 ppm [3, 5] was at least 75% and the mortality at 2500 ppm [4] was at least 75%.

Molecule N#Cc1c(NC2=NOC(c3cc(Cl)cc(Cl)c3)(C(F)(F)F)C2)cccc1C(=O)NC1CC1 (stereo not drawn) [I-173] has a mortality at 2500 ppm [3, 5] of at least 75% and a mortality at 2500 ppm [4] of at least 75%.

Cc1ccc(NC2=NOC(c3cc(Cl)cc(Cl)c3)(C(F)(F)F)C2)cc1C(=O)NCC(F)(F)F (stereo not drawn) [I-176] was tested, and the mortality at 2500 ppm [2] was at least 75%, the mortality at 2500 ppm [3, 5] was at least 75% and the mortality at 2500 ppm [4] was at least 75%.
